# In US8674113B2, “Compounds” (Boehringer Ingelheim International GmbH, priority 2010, dated 2014):
# Molecular target: mPGES-1 in A549 cells (Homo sapiens (Human), UniProt O14684)
# Assay: A549 cell-based assay (PGE2 formation, 50% human serum)
# Conditions: IL-1β 5 ng/ml, 10 nM arachidonic acid, 20-24 h, read-out: mPGES-1 inhibitory effect IC50 in the cell assay
# Description: Although the enzymatic assay is a high throughput assay the disadvantage is that it uses a recombinant protein which is not in its natural environment. Accordingly a cellular assay was established in which a cell line of human origin (A549) expressing the mPGES-1 protein was used. In addition in order to mimic the situation in humans in which compounds can be bound to plasma proteins 50% human serum is added in the assay.
# A549 cells (ATCC: CCL-185) are grown to about 90% confluence in F-12K Nutrient Mixture (Kaighn's Mod. Gibco) containing 10% FBS in a humified incubator at 37° C. and 5% CO2. Cells were detached using Trypsin-EDTA. A549 cells were seeded in a 384-well collagene plate at a density of 7000 cells/well (50 μl) in F-12 medium containing 1% Penicillin-Streptomycin and 50% human serum. The cells were allowed to attach for 3-4 h. After that the cells were incubated for 20-24 h in F-12k medium supplemented with 50% human serum, 1% Penicillin-Streptomycin and containing IL-1β at a final concentration of 5 ng/ml as well as 10 nM arachidonic acid in the presence of a vehicle or a test compound. The total volume is 100 μl.
# Concentrations of PGE2 in the cell free medium (10 μl) were measured using a commercially available HTRF kit from Cisbio (as described above). The PGE2 formation in the absence of test compound was taken as 100%.
# IC50 values were derived from at 6-8 point titrations using conventional software.
# mPGES-1 in A549 cells, sequence (O14684 whole entry): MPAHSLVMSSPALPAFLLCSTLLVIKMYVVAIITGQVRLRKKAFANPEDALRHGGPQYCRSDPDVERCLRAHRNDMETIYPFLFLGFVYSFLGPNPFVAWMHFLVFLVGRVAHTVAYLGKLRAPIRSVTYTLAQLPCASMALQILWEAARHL
row,IC50 [nM],Structure (SMILES)
1,6,Cn1c(Nc2c(Cl)ccc(CNC(=O)c3c(F)cncc3F)c2Cl)nc2cc(C(=O)N[C@H]3CC[C@H](C(F)(F)F)CC3)c(N3CC4CC4C3)cc21 (some centres unmarked) [Example 201]
2,> 100,Cc1cc(C(=O)NCc2ccc(Cl)c(Nc3nc4cc(C(=O)N[C@H]5CC[C@H](C(F)(F)F)CC5)c(N5CC6CC6C5)cc4n3C)c2Cl)nn1C (some centres unmarked) [Example 219]
3,100,Cc1noc(N)c1C(=O)NCc1ccc(Cl)c(Nc2nc3cc(C(=O)N[C@H]4CC[C@H](C(F)(F)F)CC4)c(N4CC5CC5C4)cc3n2C)c1Cl (some centres unmarked) [Example 222]
4,67,Cc1noc(C)c1C(=O)NCc1ccc(Cl)c(Nc2nc3cc(C(=O)N[C@H]4CC[C@H](C(F)(F)F)CC4)c(N4CC5CC5C4)cc3n2C)c1Cl (some centres unmarked) [Example 224]
5,71,Cc1nc(N)sc1C(=O)NCc1ccc(Cl)c(Nc2nc3cc(C(=O)N[C@H]4CC[C@H](C(F)(F)F)CC4)c(N4CC5CC5C4)cc3n2C)c1Cl (some centres unmarked) [Example 225]
6,43,Cc1nc(C)c(C(=O)NCc2ccc(Cl)c(Nc3nc4cc(C(=O)N[C@H]5CC[C@H](C(F)(F)F)CC5)c(N5CC6CC6C5)cc4n3C)c2Cl)s1 (some centres unmarked) [Example 227]
7,> 100,Cc1nc(C(=O)NCc2ccc(Cl)c(Nc3nc4cc(C(=O)N[C@H]5CC[C@H](C(F)(F)F)CC5)c(N5CC6CC6C5)cc4n3C)c2Cl)cs1 (some centres unmarked) [Example 228]
8,40,Cn1c(Nc2c(Cl)ccc(CNC(=O)c3cc[nH]n3)c2Cl)nc2cc(C(=O)N[C@H]3CC[C@H](C(F)(F)F)CC3)c(N3CC4CC4C3)cc21 (some centres unmarked) [Example 230]
9,23,Cn1c(Nc2c(Cl)ccc(CNC(=O)OC(C)(C)C)c2Cl)nc2cc(C(=O)NCCC(F)(F)F)c(N3CC4CC4C3)cc21 (centres unmarked) [Example 266]
10,1.7,Cn1c(Nc2c(Cl)ccc(CNC(=O)C(C)(C)C)c2Cl)nc2cc(C(=O)Nc3ccc(OC(F)(F)F)cc3)c(N3CCC(F)CC3)cc21 [Example 267]
11,6.5,CC(C)(C)C(=O)NCc1ccc(Cl)c(Nc2nc3cc(C(=O)Nc4ccc(OC(F)(F)F)cc4)c(N4CCOCC4)cc3n2CCC(N)=O)c1Cl [Example 268]
12,55,CC(C)(F)C(=O)NCc1ccc(Cl)c(Nc2nc3cc(C(=O)NCCC(F)(F)F)c(N4CCC(C(F)(F)F)CC4)cc3n2C(C)(C)CO)c1Cl [Example 269]

# The remaining lines, values behind:
row,Structure (SMILES),IC50 [nM]
1,COc1cncc(C(=O)NCc2ccc(Cl)c(Nc3nc4cc(C(=O)N[C@H]5CC[C@H](C(F)(F)F)CC5)c(N5CC6CC6C5)cc4n3C)c2Cl)c1 (some centres unmarked) [Example 200],> 100
2,Cc1cc(C)nc(C(=O)NCc2ccc(Cl)c(Nc3nc4cc(C(=O)N[C@H]5CC[C@H](C(F)(F)F)CC5)c(N5CC6CC6C5)cc4n3C)c2Cl)c1 (some centres unmarked) [Example 202],57
3,CNc1cc(C(=O)NCc2ccc(Cl)c(Nc3nc4cc(C(=O)N[C@H]5CC[C@H](C(F)(F)F)CC5)c(N5CC6CC6C5)cc4n3C)c2Cl)ccn1 (some centres unmarked) [Example 203],46
4,COc1cccc(C(=O)NCc2ccc(Cl)c(Nc3nc4cc(C(=O)N[C@H]5CC[C@H](C(F)(F)F)CC5)c(N5CC6CC6C5)cc4n3C)c2Cl)n1 (some centres unmarked) [Example 204],49
5,Cn1c(Nc2c(Cl)ccc(CNC(=O)c3cncc(O)c3)c2Cl)nc2cc(C(=O)N[C@H]3CC[C@H](C(F)(F)F)CC3)c(N3CC4CC4C3)cc21 (some centres unmarked) [Example 205],> 100
6,Cn1c(Nc2c(Cl)ccc(CNC(=O)c3cccc(CO)n3)c2Cl)nc2cc(C(=O)N[C@H]3CC[C@H](C(F)(F)F)CC3)c(N3CC4CC4C3)cc21 (some centres unmarked) [Example 206],42
7,Cn1c(Nc2c(Cl)ccc(CNC(=O)c3cc(CO)ccn3)c2Cl)nc2cc(C(=O)N[C@H]3CC[C@H](C(F)(F)F)CC3)c(N3CC4CC4C3)cc21 (some centres unmarked) [Example 207],170
8,Cn1c(Nc2c(Cl)ccc(CNC(=O)c3cccc(C#N)n3)c2Cl)nc2cc(C(=O)N[C@H]3CC[C@H](C(F)(F)F)CC3)c(N3CC4CC4C3)cc21 (some centres unmarked) [Example 208],21
9,Cn1c(Nc2c(Cl)ccc(CNC(=O)c3cc(C#N)ccn3)c2Cl)nc2cc(C(=O)N[C@H]3CC[C@H](C(F)(F)F)CC3)c(N3CC4CC4C3)cc21 (some centres unmarked) [Example 209],6.5
10,CCn1c(C(=O)NCc2ccc(Cl)c(Nc3nc4cc(C(=O)N[C@H]5CC[C@H](C(F)(F)F)CC5)c(N5CC6CC6C5)cc4n3C)c2Cl)cccc1=O (some centres unmarked) [Example 210],8
11,COc1ncccc1C(=O)NCc1ccc(Cl)c(Nc2nc3cc(C(=O)N[C@H]4CC[C@H](C(F)(F)F)CC4)c(N4CC5CC5C4)cc3n2C)c1Cl (some centres unmarked) [Example 211],106
12,Cn1c(Nc2c(Cl)ccc(CNC(=O)c3ccc(C#N)nc3)c2Cl)nc2cc(C(=O)N[C@H]3CC[C@H](C(F)(F)F)CC3)c(N3CC4CC4C3)cc21 (some centres unmarked) [Example 212],1.7
13,COc1cncc(C(=O)NCc2ccc(Cl)c(Nc3nc4cc(C(=O)N[C@H]5CC[C@H](C(F)(F)F)CC5)c(N5CC6CC6C5)cc4n3C)c2Cl)n1 (some centres unmarked) [Example 213],41
14,CNc1cncc(C(=O)NCc2ccc(Cl)c(Nc3nc4cc(C(=O)N[C@H]5CC[C@H](C(F)(F)F)CC5)c(N5CC6CC6C5)cc4n3C)c2Cl)n1 (some centres unmarked) [Example 214],113
15,Cn1c(Nc2c(Cl)ccc(CNC(=O)c3ncn[nH]3)c2Cl)nc2cc(C(=O)N[C@H]3CC[C@H](C(F)(F)F)CC3)c(N3CC4CC4C3)cc21 (some centres unmarked) [Example 215],> 100
16,Cn1ccnc1C(=O)NCc1ccc(Cl)c(Nc2nc3cc(C(=O)N[C@H]4CC[C@H](C(F)(F)F)CC4)c(N4CC5CC5C4)cc3n2C)c1Cl (some centres unmarked) [Example 216],27
17,Cn1cncc1C(=O)NCc1ccc(Cl)c(Nc2nc3cc(C(=O)N[C@H]4CC[C@H](C(F)(F)F)CC4)c(N4CC5CC5C4)cc3n2C)c1Cl (some centres unmarked) [Example 217],> 100
18,Cn1c(Nc2c(Cl)ccc(CNC(=O)c3cc(O)[nH]n3)c2Cl)nc2cc(C(=O)N[C@H]3CC[C@H](C(F)(F)F)CC3)c(N3CC4CC4C3)cc21 (some centres unmarked) [Example 218],98
19,Cn1c(Nc2c(Cl)ccc(CNC(=O)c3c[nH]cn3)c2Cl)nc2cc(C(=O)N[C@H]3CC[C@H](C(F)(F)F)CC3)c(N3CC4CC4C3)cc21 (some centres unmarked) [Example 220],119
20,Cn1c(Nc2c(Cl)ccc(CNC(=O)c3cn[nH]c3)c2Cl)nc2cc(C(=O)N[C@H]3CC[C@H](C(F)(F)F)CC3)c(N3CC4CC4C3)cc21 (some centres unmarked) [Example 221],53
21,Cc1cc(C(=O)NCc2ccc(Cl)c(Nc3nc4cc(C(=O)N[C@H]5CC[C@H](C(F)(F)F)CC5)c(N5CC6CC6C5)cc4n3C)c2Cl)no1 (some centres unmarked) [Example 223],12
22,Cn1c(Nc2c(Cl)ccc(CNC(=O)c3cnc(N)s3)c2Cl)nc2cc(C(=O)N[C@H]3CC[C@H](C(F)(F)F)CC3)c(N3CC4CC4C3)cc21 (some centres unmarked) [Example 226],98
23,Cn1c(Nc2c(Cl)ccc(CNC(=O)c3csc(N)n3)c2Cl)nc2cc(C(=O)N[C@H]3CC[C@H](C(F)(F)F)CC3)c(N3CC4CC4C3)cc21 (some centres unmarked) [Example 229],4.6
